In patent US20220274954A1, “SUBSTITUTED N-PHENYL-N-AMINOUARCILS AND SALTS THEREOF AND USE THEREOF AS HERBICIDAL AGENTS” (Bayer Aktiengesellschaft, priority 2019, published 2022):

Columns and labels:
Type in all cases: in vivo
Abutilon theophrasti = assay: Post-emergence herbicidal action; conditions: for pest or weed control at 5 g/ha / pest or weed control at 20 g/ha: Abutilon theophrasti, 504 h, read-out: Abutilon theophrasti (efficacy in %)
Experimental: (§1) Seeds of monocotyledonous and dicotyledonous weeds and crop plants were placed in sandy loam in plastic or wood-fiber pots, covered with soil and cultivated in a greenhouse under controlled growth conditions. 2 to 3 weeks after sowing, the test plants were treated at the one-leaf stage. The compounds of the invention, formulated in the form of wettable powders (WP) or as emulsion concentrates (EC), were then sprayed onto the green parts of the plants as aqueous suspension or emulsion with addition of 0.5% additive at a water application rate of […] (converted). After the test plants had been kept in the greenhouse under optimum growth conditions for about 3 weeks, the activity of the preparations was rated visually in comparison to untreated controls. For example, 100% activity=the plants have died, 0% activity=like control plants. Tables A1 to A14 below show the effects of selected compounds of the general formula (I) according to Tables I.1 to I.34 on various harmful plants and at an application rate corresponding to 20 g/ha and less, which were obtained by the experimental procedure mentioned above.

Alopecurus myosuroides = assay: Post-emergence herbicidal action
Experimental: as §1

Amaranthus retroflexus = assay: Post-emergence herbicidal action; conditions: for pest or weed control at 5 g/ha / pest or weed control at 20 g/ha: Amaranthus retroflexus, 504 h, read-out: Amaranthus retroflexus (efficacy in %)
Experimental: as §1

Avena fatua = assay: Post-emergence herbicidal action; conditions: application rate 20 g/ha
Experimental: as §1

Digitaria sanguinalis = assay: Post-emergence herbicidal action; conditions: 504 h, read-out: Digitaria sanguinalis (efficacy in %); for pest or weed control at 5 g/ha: application rate 5 g/ha; for pest or weed control at 20 g/ha: application rate 20 g/ha
Experimental: as §1

Echinochloa crus-galli = assay: Post-emergence herbicidal action; conditions: for pest or weed control at 5 g/ha / pest or weed control at 20 g/ha: Echinochloa crus-galli, 504 h, read-out: Echinochloa crus-galli (efficacy in %)
Experimental: as §1

Lolium rigidum = assay: Post-emergence herbicidal action; conditions: application rate 20 g/ha
Experimental: as §1

Matricaria inodora = assay: Post-emergence herbicidal action; conditions: for pest or weed control at 5 g/ha / pest or weed control at 20 g/ha: Tripleurospermum inodorum, 504 h, read-out: Matricaria inodora (efficacy in %)
Experimental: as §1

Pharbitis purpurea = assay: Post-emergence herbicidal action; conditions: for pest or weed control at 5 g/ha / pest or weed control at 20 g/ha: Ipomoea purpurea, 504 h, read-out: Pharbitis purpurea (efficacy in %)
Experimental: as §1

Polygonum convolvulus = assay: Post-emergence herbicidal action; conditions: Fallopia convolvulus, 504 h, read-out: Polygonum convolvulus (efficacy in %); for pest or weed control at 5 g/ha: application rate 5 g/ha; for pest or weed control at 20 g/ha: application rate 20 g/ha
Experimental: as §1

Setaria viridis = assay: Post-emergence herbicidal action; conditions: 504 h, read-out: Setaria viridis (efficacy in %); for pest or weed control at 5 g/ha: application rate 5 g/ha; for pest or weed control at 20 g/ha: application rate 20 g/ha
Experimental: as §1

Veronica persica = assay: Post-emergence herbicidal action; conditions: for pest or weed control at 5 g/ha / pest or weed control at 20 g/ha: Veronica persica, 504 h, read-out: Veronica persica (efficacy in %)
Experimental: as §1

Viola tricolor = assay: Post-emergence herbicidal action; conditions: for pest or weed control at 5 g/ha / pest or weed control at 20 g/ha: Viola tricolor, 504 h, read-out: Viola tricolor (efficacy in %)
Experimental: as §1

Oryza sativa = assay: Post-emergence crop plant compatibility
Experimental: as §1, with “plants.” for “plants. Tables A1 to A14 below show the effects of selected compounds of the general formula (I) according to Tables I.1 to I.34 on various harmful plants and at an application rate corresponding to 20 g/ha and less, which were obtained by the experimental procedure mentioned above.”
(§2) Here, the observed effects on selected crop plants are stated in comparison to the untreated controls (values in %).

Triticum aestivum = assay: Post-emergence crop plant compatibility
Experimental: as §1, with “plants.” for “plants. Tables A1 to A14 below show the effects of selected compounds of the general formula (I) according to Tables I.1 to I.34 on various harmful plants and at an application rate corresponding to 20 g/ha and less, which were obtained by the experimental procedure mentioned above.”
as §2

Zea mays = assay: Post-emergence crop plant compatibility
Experimental: as §1, with “plants.” for “plants. Tables A1 to A14 below show the effects of selected compounds of the general formula (I) according to Tables I.1 to I.34 on various harmful plants and at an application rate corresponding to 20 g/ha and less, which were obtained by the experimental procedure mentioned above.”
as §2

Hordeum murinum = assay: Post-emergence herbicidal action
Experimental: as §1

Stellaria media = assay: Post-emergence herbicidal action; conditions: application rate 5 g/ha
Experimental: as §1

Glycine max = assay: Post-emergence crop plant compatibility; conditions: application rate 5 g/ha
Experimental: as §1, with “plants.” for “plants. Tables A1 to A14 below show the effects of selected compounds of the general formula (I) according to Tables I.1 to I.34 on various harmful plants and at an application rate corresponding to 20 g/ha and less, which were obtained by the experimental procedure mentioned above.”
as §2

Oryza sativa (efficacy in %) (Oryza sativa; application rate 1.25 g/ha) [%]	Triticum aestivum (efficacy in %) (Triticum aestivum; application rate 1.25 g/ha) [%]	Compound	pest or weed control at 5 g/ha (Abutilon theophrasti; application rate 5 g/ha) [%]	pest or weed control at 20 g/ha (Abutilon theophrasti; application rate 20 g/ha) [%]	Alopecurus myosuroides (efficacy in %) (Alopecurus myosuroides; application rate 20 g/ha) [%]	pest or weed control at 5 g/ha (Amaranthus retroflexus; application rate 5 g/ha) [%]	pest or weed control at 20 g/ha (Amaranthus retroflexus; application rate 20 g/ha) [%]	Avena fatua (efficacy in %) (Avena fatua) [%]	pest or weed control at 5 g/ha (Digitaria sanguinalis) [%]	pest or weed control at 20 g/ha (Digitaria sanguinalis) [%]	pest or weed control at 5 g/ha (Echinochloa crus-galli; application rate 5 g/ha) [%]	pest or weed control at 20 g/ha (Echinochloa crus-galli; application rate 20 g/ha) [%]	Lolium rigidum (efficacy in %) (Lolium rigidum) [%]	pest or weed control at 5 g/ha (Matricaria inodora; application rate 5 g/ha) [%]	pest or weed control at 20 g/ha (Matricaria inodora; application rate 20 g/ha) [%]	pest or weed control at 5 g/ha (Pharbitis purpurea; application rate 5 g/ha) [%]	pest or weed control at 20 g/ha (Pharbitis purpurea; application rate 20 g/ha) [%]	pest or weed control at 5 g/ha (Polygonum convolvulus) [%]	pest or weed control at 20 g/ha (Polygonum convolvulus) [%]	pest or weed control at 5 g/ha (Setaria viridis) [%]	also measured
20	20	COCCOCCOC(=O)COc1ncccc1Sc1cc(-n2c(=O)cc(C(F)(F)F)n(N)c2=O)c(F)cc1Cl [I.1-23, 2-(2-Methoxyethoxy)ethyl {[3-({5-[3-amino-2,6-dioxo-4-(trifluoromethyl)-3,6-dihydropyrimidin-1(2H)-yl]-2-chloro-4-fluorophenyl}sulfanyl)pyridin-2-yl]oxy}acetate]	100	100	90	100	100	100	100	100	80	100	80	80	100	80	100	100	100	100	pest or weed control at 20 g/ha (Setaria viridis): 100%; pest or weed control at 5 g/ha (Veronica persica; application rate 5 g/ha): 100%; pest or weed control at 20 g/ha (Veronica persica; application rate 20 g/ha): 100%; pest or weed control at 5 g/ha (Viola tricolor; application rate 5 g/ha): 100%; pest or weed control at 20 g/ha (Viola tricolor; application rate 20 g/ha): 100%; Zea mays (efficacy in %) (Zea mays; application rate 1.25 g/ha): 20%
10	20	COC(=O)COc1ncccc1Sc1cc(-n2c(=O)cc(C(F)(F)F)n(N)c2=O)c(F)cc1Cl [I.1-441, Methyl {[3-({5-[3-amino-2,6-dioxo-4-(trifluoromethyl)-3,6-dihydropyrimidin-1(2H)-yl]-2-chloro-4-fluorophenyl}sulfanyl)pyridin-2-yl]oxy}acetate]	100	100	–	100	100	–	90	100	80	100	80	100	100	100	100	80	100	100	Hordeum murinum (efficacy in %) (Hordeum murinum; application rate 5 g/ha): 80%; Hordeum murinum (efficacy in %) (Hordeum murinum; application rate 20 g/ha): 100%; pest or weed control at 20 g/ha (Setaria viridis): 100%; Stellaria media (efficacy in %) (Stellaria media): 100%; pest or weed control at 5 g/ha (Veronica persica; application rate 5 g/ha): 100%; pest or weed control at 20 g/ha (Veronica persica; application rate 20 g/ha): 100%; pest or weed control at 5 g/ha (Viola tricolor; application rate 5 g/ha): 100%; pest or weed control at 20 g/ha (Viola tricolor; application rate 20 g/ha): 100%; Glycine max (efficacy in %) (Glycine max): 20%; Oryza sativa (efficacy in %) (Oryza sativa; application rate 5 g/ha): 20%; Zea mays (efficacy in %) (Zea mays; application rate 1.25 g/ha): 20%
0	0	CCOCCOC(=O)COc1ncccc1Sc1cc(-n2c(=O)cc(C(F)(F)F)n(N)c2=O)c(F)cc1Cl [I.1-2, 2-Ethoxyethyl {[3-({5-[3-amino-2,6-dioxo-4-(trifluoromethyl)-3,6-dihydropyrimidin-1(2H)-yl]-2-chloro-4-fluorophenyl}sulfanyl)pyridin-2-yl]oxy}acetate]	100	100	100	100	100	80	100	100	90	100	80	100	100	100	100	100	100	100	pest or weed control at 20 g/ha (Setaria viridis): 100%; pest or weed control at 5 g/ha (Veronica persica; application rate 5 g/ha): 100%; pest or weed control at 20 g/ha (Veronica persica; application rate 20 g/ha): 100%; pest or weed control at 5 g/ha (Viola tricolor; application rate 5 g/ha): 100%; pest or weed control at 20 g/ha (Viola tricolor; application rate 20 g/ha): 100%; Oryza sativa (efficacy in %) (Oryza sativa; application rate 5 g/ha): 10%
0	10	C=CCOC(=O)COc1ncccc1Sc1cc(-n2c(=O)cc(C(F)(F)F)n(N)c2=O)c(F)cc1Cl [I.1-471]	–	–	100	–	–	80	–	–	–	–	80	–	–	–	–	–	–	–	Abutilon theophrasti (efficacy in %) (Abutilon theophrasti; application rate 5 g/ha): 100%; Abutilon theophrasti (efficacy in %) (Abutilon theophrasti; application rate 20 g/ha): 100%; Alopecurus myosuroides (efficacy in %) (Alopecurus myosuroides; application rate 5 g/ha): 80%; Amaranthus retroflexus (efficacy in %) (Amaranthus retroflexus; application rate 5 g/ha): 100%; Amaranthus retroflexus (efficacy in %) (Amaranthus retroflexus; application rate 20 g/ha): 100%; Echinochloa crus-galli (efficacy in %) (Echinochloa crus-galli; application rate 5 g/ha): 90%; Echinochloa crus-galli (efficacy in %) (Echinochloa crus-galli; application rate 20 g/ha): 100%; Matricaria inodora (efficacy in %) (Matricaria inodora; application rate 5 g/ha): 100%; Matricaria inodora (efficacy in %) (Matricaria inodora; application rate 20 g/ha): 100%; Pharbitis purpurea (efficacy in %) (Pharbitis purpurea; application rate 5 g/ha): 100%; Pharbitis purpurea (efficacy in %) (Pharbitis purpurea; application rate 20 g/ha): 100%; Veronica persica (efficacy in %) (Veronica persica; application rate 5 g/ha): 100%; Veronica persica (efficacy in %) (Veronica persica; application rate 20 g/ha): 100%; Viola tricolor (efficacy in %) (Viola tricolor; application rate 5 g/ha): 100%; Viola tricolor (efficacy in %) (Viola tricolor; application rate 20 g/ha): 100%; Triticum aestivum (efficacy in %) (Triticum aestivum; application rate 5 g/ha): 20%; Zea mays (efficacy in %) (Zea mays; application rate 5 g/ha): 20%
